Results as given in US9499553B2 (CHUGAI SEIYAKU KABUSHIKI KAISHA, priority 2013, dated 2016).
Structures can show the parent of a compound that is named as a salt. Where two headings read alike, the source gives them in different places.

Biological target: T1, human NaPi-IIb (Homo sapiens, UniProt O95436)
T1 construct: expressed in transfected cells
T1 sequence (O95436 1-690): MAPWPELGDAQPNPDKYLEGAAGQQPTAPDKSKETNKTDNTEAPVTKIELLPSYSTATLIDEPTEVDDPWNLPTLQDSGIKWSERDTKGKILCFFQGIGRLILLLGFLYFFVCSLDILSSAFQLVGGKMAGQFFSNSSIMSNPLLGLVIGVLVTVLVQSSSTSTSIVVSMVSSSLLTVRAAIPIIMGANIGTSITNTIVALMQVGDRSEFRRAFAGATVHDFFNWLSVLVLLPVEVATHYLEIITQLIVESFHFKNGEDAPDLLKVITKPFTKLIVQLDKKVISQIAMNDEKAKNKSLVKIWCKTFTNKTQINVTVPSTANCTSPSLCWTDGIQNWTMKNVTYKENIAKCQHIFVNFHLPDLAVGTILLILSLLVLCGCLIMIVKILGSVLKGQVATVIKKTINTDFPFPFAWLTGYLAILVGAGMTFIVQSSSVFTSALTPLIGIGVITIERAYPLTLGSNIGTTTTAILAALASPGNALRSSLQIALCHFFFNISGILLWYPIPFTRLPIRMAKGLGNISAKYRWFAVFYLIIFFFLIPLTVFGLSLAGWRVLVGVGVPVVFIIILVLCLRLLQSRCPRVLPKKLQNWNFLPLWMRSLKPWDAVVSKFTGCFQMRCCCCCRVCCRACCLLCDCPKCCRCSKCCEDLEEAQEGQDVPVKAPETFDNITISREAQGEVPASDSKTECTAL
Test: Inhibitory effect on 33PO4 uptake into human NaPi-IIb-expressing CHO cells
Assay type: cell-based
Description: Test Example 2: Inhibitory Effect on PO4 Uptake into Human NaPi-IIb-Expressing Cell CHO cells were transfected with human NaPi-IIb expression plasmids, and a stably human NaPi-IIb-expressing cell line was obtained using G418. The human NaPi-IIb-expressing cells were inoculated to a 96-well plate and incubated overnight in a CO2 incubator. […] After a given time, a 1/20 volume of buffer A containing ^33PO4 was added thereto and reacted at room temperature. After washing with ice-cold buffer A, a liquid scintillator was added to each reaction mixture, and the amount of ^33PO4 uptake was measured using TopCount.

[1] = read-out: IC50 against 33PO4 uptake into human NaPi-IIb-expressing cells

IC50 [1] | IC50 (read-out: IC50) | SMILES
25.5 µM | – | CN1N(Cc2ccc(OCCN(CCO)CCO)c(F)c2F)C(=O)C(C(=O)Nc2ccc(C(F)(F)F)cc2-c2cc(C(F)(F)F)ncn2)=C(O)C12CCC2 [Example 351]
18 µM | – | CN1N(Cc2ccc(OCCN3CCN(CCOCCO)CC3)c(F)c2F)C(=O)C(C(=O)Nc2ccc(C(F)(F)F)cc2-c2cc(C(F)(F)F)ncn2)=C(O)C12CCCC2 [Example 378]
19.5 µM | – | CN(CCOCCOCCOCCOCCOc1ccc(CN2C(=O)C(C(=O)Nc3ccc(C(F)(F)F)cc3-c3cc(C(F)(F)F)ncn3)=C(O)C3(CCCC3)N2C)c(F)c1F)C[C@@H](O)[C@H](O)[C@@H](O)[C@@H](O)CO [Example 421, 7-[[2,3-Difluoro-4-[2-[2-[2-[2-[2-[methyl-[(2R,3 S,4S,5 S)-2,3,4,5,6-pentahydroxyhexyl]amino]ethoxy]ethoxy]ethoxy]ethoxy]ethoxy]phenyl]methyl]-10-hydroxy-6-methyl-8-oxo-N-[4-(trifluoromethyl)-2-[6-(trifluoromethyl)pyrimidin-4-yl]phenyl]-6,7-diazaspiro[4.5]dec-9-ene-9-carboxamide]
21.8 µM | – | CSC1CN(CCOc2ccc(CN3C(=O)C(C(=O)Nc4ccc(C(F)(F)F)cc4-c4cc(C(F)(F)F)ncn4)=C(O)C4(CCC4)N3C)c(F)c2F)C1 [Example 357]
– | 10 µM | Cc1c(-c2cc(C(F)(F)F)ccc2NC(=O)C2=C(O)C3(CCCCC3)N(C)N(Cc3ccc(OCCN4CCOCC4)c(F)c3F)C2=O)ncnc1C(F)(F)F [Example 296]
– | 4.8 µM | C[C@]12CCCN1N(Cc1cccc(Cl)c1F)C(=O)C(C(=O)Nc1ccc(C(F)(F)F)cc1-c1cc(C(F)(F)F)ncn1)=C2O [Example 209]
– | 10.7 µM | CCC1(CC)C(O)=C(C(=O)Nc2ccc(C(F)(F)F)cc2-c2ccc(C(F)(F)F)nc2)C(=O)N(Cc2ccc(OCCN3CCOCC3)c(F)c2F)N1C [Example 293]
16.9 µM | – | COC(C)(C)CN(C)CCOc1ccc(CN2C(=O)C(C(=O)Nc3ccc(C(F)(F)F)cc3-c3cc(C(F)(F)F)ncn3)=C(O)C3(CCC3)N2C)c(F)c1F [Example 350]
– | 15.8 µM | Cc1c(Cl)ncnc1-c1cc(C(F)(F)F)ccc1NC(=O)C1=C(O)[C@H](C(C)(C)C)N(C)N(Cc2ccc(OCCN3CCOCC3)c(F)c2F)C1=O [Example 276]
18.6 µM | – | CN(CCOCCOc1ccc(CN2C(=O)C(C(=O)Nc3ccc(C(F)(F)F)cc3-c3cc(C(F)(F)F)ncn3)=C(O)C3(CCCC3)N2C)c(F)c1F)C[C@H](O)[C@@H](O)[C@H](O)[C@H](O)CO [Example 420, 7-[[2,3-Difluoro-4-[2-[2-[methyl-[(2S,3R,4R,5R)-2,3,4,5,6-pentahydroxyhexyl]amino]ethoxy]ethoxy]phenyl]methyl]-10-hydroxy-6-methyl-8-oxo-N-[4-(trifluoromethyl)-2-[6-(trifluoromethyl)pyrimidin-4-yl]phenyl]-6,7-diazaspiro[4.5]dec-9-ene-9-carboxamide]
– | 9.6 µM | CN1N(Cc2ccc(OCCN3CCOCC3)c(F)c2F)C(=O)C(C(=O)Nc2ccc(C(F)(F)F)cc2-c2cc(C(F)(F)F)ncn2)=C(O)C12CCC2 [Example 317, 6-[[2,3-Difluoro-4-(2-morpholin-4-ylethoxy)phenyl]methyl]-9-hydroxy-5-methyl-7-oxo-N-[4-(trifluoromethyl)-2-[6-(trifluoromethyl)pyrimidin-4-yl]phenyl]-5,6-diazaspiro[3.5] non-8-ene-8-carboxamide]
– | 13.4 µM | CN(CCOc1ccc(CN2C(=O)C(C(=O)Nc3ccc(C(F)(F)F)cc3-c3cc(C(F)(F)F)ncn3)=C(O)C3(CCC3)N2C)c(F)c1F)C1CCOC1 (stereo not shown) [Example 338, 6-[[2,3-Difluoro-4-[2-[methyl(oxolan-3-yl)amino]ethoxy]phenyl]methyl]-9-hydroxy-5-methyl-7-oxo-N-[4-(trifluoromethyl)-2-[6-(trifluoromethyl)pyrimidin-4-yl]phenyl]-5,6-diazaspiro[3.5]non-8-ene-8-carboxamide]
– | 5.1 µM | C[C@]12CCCN1N(Cc1cc(F)cc(F)c1)C(=O)C(C(=O)Nc1cc(F)c(Br)c(F)c1)=C2O [Example 190]
16.4 µM | – | CN1N(Cc2ccc(OCCN3CCC(N4CCOCC4)CC3)c(F)c2F)C(=O)C(C(=O)Nc2ccc(C(F)(F)F)cc2-c2cc(C(F)(F)F)ncn2)=C(O)C12CCCC2 [Example 374]
– | 10.3 µM | CN1N(Cc2ccc(OCCCCCC(=O)O)c(F)c2F)C(=O)C(C(=O)Nc2ccc(C(F)(F)F)cc2-c2cc(C(F)(F)F)ncn2)=C(O)C12CCCC2 [Example 334]
20.9 µM | – | CN1N(Cc2ccc(OCCCOC[C@H](O)CO)c(F)c2F)C(=O)C(C(=O)Nc2ccc(C(F)(F)F)cc2-c2ccc(C(F)(F)F)nc2)=C(O)C12CCC2 [Example 383, 6-[[4-[3-[(2R)-2,3-Dihydroxypropoxy]propoxy]-2,3-difluorophenyl]methyl]-9-hydroxy-5-methyl-7-oxo-N-[4-(trifluoromethyl)-2-[6-(trifluoromethyl)pyridin-3-yl]phenyl]5,6-diazaspiro[3.5]non-8-ene-8-carboxamide]
– | 7.8 µM | COc1cc(-c2cc(C(F)(F)F)ccc2NC(=O)C2=C(O)C(C)(C)N(C)N(Cc3cccc(F)c3F)C2=O)cnc1C#N [Example 302]

Continued, compound first:

SMILES | IC50 [1] | IC50 (read-out: IC50)
COC(=O)c1cccc(-c2cc(C(F)(F)F)ccc2NC(=O)C2=C(O)[C@@]3(C)CCCN3N(Cc3cccc(F)c3F)C2=O)c1OC [Example 65] | – | 16.2 µM
COC(=O)c1cccc(CN2C(=O)C(C(=O)Nc3ccc(C(F)(F)F)cc3-c3cc(C(F)(F)F)ncn3)=C(O)[C@@]3(C)CCCN23)c1 [Example 183] | – | 9.1 µM
COc1cccc(-c2cc(C(F)(F)F)ccc2NC(=O)C2=C(O)[C@@]3(C)CCCN3N(Cc3cccc(F)c3F)C2=O)n1 [Example 93] | – | 17.4 µM
C[C@]12CCCN1N(Cc1c(Cl)cc(OCCN3CCOCC3)cc1Cl)C(=O)C(C(=O)Nc1cnc(C(F)(F)F)nc1-c1ccc(C(F)(F)F)nc1)=C2O [Example 146, (4aR)-1-[[2,6-Dichloro-4-(2-morpholin-4-ylethoxy)phenyl]methyl]-4-hydroxy-4a-methyl-2-oxo-N-[2-(trifluoromethyl)-4-[6-(trifluoromethyl)pyridin-3-yl]pyrimidin-5-yl]-6,7-dihydro-5H-pyrrolo[1,2-b]pyridazine-3-carboxamide hydrochloride] | – | 10.2 µM
C[C@]12CCCN1N(Cc1cccc(Cl)c1)C(=O)C(C(=O)Nc1ccc(C(F)(F)F)cc1-c1cc(C(F)(F)F)ncn1)=C2O [Example 181] | – | 4.8 µM
COc1cc(-c2cc(C(F)(F)F)ccc2NC(=O)C2=C(O)[C@@]3(C)CCCN3N(Cc3cccc(F)c3F)C2=O)cnc1C#N [Example 114, (4aR)—N-[2-(6-Cyano-5-methoxypyridin-3-yl)-4-(trifluoromethyl)phenyl]-1-[(2,3-difluorophenyl)methyl]-4-hydroxy-4a-methyl-2-oxo-6,7-dihydro-5H-pyrrolo[1,2-b]pyridazine-3-carboxamide] | – | 7.9 µM
COCCOc1cc(NC(=O)C2=C(O)[C@@]3(C)CCCN3N(Cc3cccc(F)c3F)C2=O)c(-c2cccc(OC)c2OC)cc1C(F)(F)F [Example 92] | – | 20.2 µM
COc1cccc(-c2cc(C(F)(F)F)ccc2NC(=O)C2=C(O)[C@@]3(C)CCCN3N(Cc3ccc(CCCOCCOCCOCCO)c(F)c3F)C2=O)c1OC [Example 142] | – | 17.6 µM
C[C@]12CCCN1N(Cc1ccc(C#CCN3CCOCC3=O)c(F)c1F)C(=O)C(C(=O)Nc1ccc(Br)c(F)c1)=C2O [Example 133] | – | 13.1 µM
C#Cc1ccc(CN2C(=O)C(C(=O)Nc3ccc(C(F)(F)F)cc3-c3cc(C(F)(F)F)ncn3)=C(O)[C@@]3(C)CCCN23)c(F)c1F [Example 126, (4aR)-1-[(4-Ethynyl-2,3-difluorophenyl)methyl]-4-hydroxy-4a-methyl-2-oxo-N-[4-(trifluoromethyl)-2-[6-(trifluoromethyl)pyrimidin-4-yl]phenyl]-6,7-dihydro-5H-pyrrolo[1,2-b]pyridazine-3-carboxamide] | – | 5.5 µM
CSc1ccc(-c2cc(C(F)(F)F)ccc2NC(=O)C2=C(O)[C@@]3(C)CCCN3N(Cc3ccc(CCCCCCC(=O)O)c(F)c3F)C2=O)cn1 [Example 115, 7-[4-[[(4aR)-4-Hydroxy-4a-methyl-3-[[2-(6-methylsulfanylpyridin-3-v1)-4-(trifluoromethyl)phenyl]carbamoyl]-2-oxo-6,7-dihydro-5H-pyrrolo[1,2-b]pyridazin-1-yl]methyl]-2,3-difluorophenyl]heptanoate] | – | 6.9 µM
C[C@]12CCCN1N(Cc1c(F)cc(OCCCCCCOC[C@H](O)CO)cc1F)C(=O)C(C(=O)Nc1ccc(C(F)(F)F)cc1-c1ccc(C(F)(F)F)nc1)=C2O [Example 155] | – | 2.3 µM
Cc1ccc(CN2C(=O)C(C(=O)Nc3ccc(C(F)(F)F)cc3-c3cc(C(F)(F)F)ncn3)=C(O)[C@@]3(C)CCCN23)cc1 [Example 187] | – | 6.7 µM
Cc1c(C#N)ncnc1-c1cc(C(F)(F)F)ccc1NC(=O)C1=C(O)[C@@]2(C)CCCN2N(Cc2cccc(F)c2F)C1=O [Example 24] | – | 8.1 µM
